{"source": "paper PMC10451632", "about": "“Site Mutation Improves the Expression and Antimicrobial Properties of Fungal Defense” (Antibiotics, 2023)", "key": {"[1]": {"test_system": "Staphylococcus aureus ATCC 43300", "test": "microbe, parasite or virus in culture", "type": "cell-based", "procedure": "(§1) The experimental operation of the expression of the Plectasin variant in P. pastoris in well plates, shaking flasks, and 5 L level fermentation was performed as referenced in previous studies. Candidates were identified through three different levels of screening. Firstly, a large number of transformants were screened through well plates to induce expression and determined by the inhibition zone assay (against S. aureus ATCC 43300). Secondly, the transformants with obvious inhibition zones were sequenced to obtain protein sequence information, then induced expression at the shake level. The supernatant was collected and purified to obtain the target protein; the anti-Staphylococcus aureus activity of the protein was detected by a MIC assay. Finally, the codons of candidate sequences were optimized, the expression vector was reconstructed, the optimal transformers were obtained, and the high-density cultivation was performed in a 5 L fermenter. The final agent was determined by high protein yield and good activity (Figure 2).\n(§2) The MIC value of PN7 against bacteria was determined by the microtiter broth dilution method. Briefly, bacteria grown to the exponential phase were diluted into MHB; subsequently, 90 μL of bacterial suspension (10^5 CFUs/mL) was mixed with 10 μL of different concentrations of PN7 in a sterilized 96-well microtiter plate (Nunc). MIC values were recorded after incubation for 16–18 h at 37 °C based on the lowest concentrations of peptides in which no visible bacterial growth was observed."}, "[2]": {"test": "Thermal stability, MIC read-out", "type": "physicochemical", "conditions": "1 h, 1280 μg/mL in physiological saline, triplicate", "procedure": "PN7 dissolved in physiological saline solution was prepared into mother liquor with a concentration of 1280 μg/mL and incubated at different temperatures for 1 h. PN7 was dissolved in different pH buffers at 37 °C for 4 h. After double gradient dilution, MIC assays were used to detect the change in antibacterial activity."}, "ICR mice": {"test_system": "ICR mice", "test": "In vivo toxicity, intraperitoneal injection", "parameters": "species or system mouse", "procedure": "ICR mice (6–8 weeks old, male, n = 5 per group; Charles River, Beijing, China) were intraperitoneally injected with PN7 (10 mg/kg, body weight) for 6 days, and the changes in mice behavior and body weight were recorded. At the same time, blood and organ tissues were collected for whole-blood cell and biochemical index analysis and H.E. staining."}, "[3]": {"test_system": "Gram-negative bacteria such as Escherichia coli, Salmonella, and Pseudomonas aeruginosa", "test": "MIC against Gram-negative bacteria", "type": "cell-based", "conditions": "Gram-negative bacteria (Table 6)", "procedure": "as §2"}, "[4]": {"test": "Serum stability, MIC read-out", "type": "in vitro ADME", "conditions": "25% or 50% mouse serum, 1280 μg/mL PN7, 37 °C, triplicate", "procedure": "The stability of peptide PN7 in SGF, SIF, and 25% or 50% mouse serum was carried out as previously described. A final concentration of 1280 μg/mL PN7 was prepared and incubated at 37 °C and then diluted twice. The MIC was determined."}, "S. aureus ATCC 25923": {"test_system": "S. aureus ATCC 25923", "type": "cell-based, Staphylococcus aureus", "procedure": "as §1, §2"}, "S. aureus E48": {"test_system": "S. aureus E48", "type": "cell-based, Staphylococcus aureus", "procedure": "as §1, §2"}, "S. aureus CVCC 546": {"test_system": "S. aureus CVCC 546", "type": "cell-based, Staphylococcus aureus", "procedure": "as §1, §2"}, "mouse erythrocytes": {"test_system": "mouse erythrocytes", "test": "Hemolytic activity", "type": "cell-based", "conditions": "128 μg/mL; fresh mouse red blood cells; 0.1% Triton X-100 = 100% hemolysis; mean of three biological replicates", "procedure": "The hemolytic activity of PN7 was evaluated based on the amount of the released hemoglobin from erythrocyte suspensions of healthy mouse blood. Erythrocyte suspensions treated with 0.1% Triton X-100 and saline were used as 100% hemolysis and negative control, respectively."}, "[5]": {"test_system": "S. epidermidis ATCC 35984", "test": "MIC, microtiter broth dilution", "type": "cell-based", "conditions": "MHB, 10^5 CFUs/mL, 16–18 h at 37 °C", "procedure": "as §2"}, "[6]": {"test_system": "Streptococcus. suis CVCC 606", "test": "MIC, microtiter broth dilution", "type": "cell-based", "conditions": "MHB, 10^5 CFUs/mL, 16–18 h at 37 °C", "procedure": "as §2"}, "S. pullorum CVCC 1789": {"test_system": "S. pullorum CVCC 1789", "test": "MIC, microtiter broth dilution", "type": "cell-based", "conditions": "MHB, 10^5 CFUs/mL, 16–18 h at 37 °C", "procedure": "as §2"}, "S. hyicus 437-2": {"test_system": "S. hyicus 437-2", "test": "MIC, microtiter broth dilution", "type": "cell-based", "conditions": "MHB, 10^5 CFUs/mL, 16–18 h at 37 °C", "procedure": "as §2"}, "S. agalactiae CAU-FRI-4": {"test_system": "S. agalactiae CAU-FRI-4", "test": "MIC, microtiter broth dilution", "type": "cell-based", "conditions": "MHB, 10^5 CFUs/mL, 16–18 h at 37 °C", "procedure": "as §2"}, "S. hyicus NCTC 10350": {"test_system": "S. hyicus NCTC 10350", "test": "MIC, microtiter broth dilution", "type": "cell-based", "conditions": "MHB, 10^5 CFUs/mL, 16–18 h at 37 °C", "procedure": "as §2"}, "[7]": {"test_system": "Pseudomonas aeruginosa CICC 20625", "test": "MIC, microtiter broth dilution", "type": "cell-based", "conditions": "MHB, 10^5 CFUs/mL, 16–18 h at 37 °C", "procedure": "as §2"}, "[8]": {"test_system": "Salmonella enterica ATCC 13076", "test": "MIC, microtiter broth dilution", "type": "cell-based", "conditions": "MHB, 10^5 CFUs/mL, 16–18 h at 37 °C", "procedure": "as §2"}, "[9]": {"test_system": "Escherichia coli CVCC 195", "test": "MIC, microtiter broth dilution", "type": "cell-based", "conditions": "MHB, 10^5 CFUs/mL, 16–18 h at 37 °C", "procedure": "as §2"}, "S. enteritidis CVCC 3377": {"test_system": "S. enteritidis CVCC 3377", "test": "MIC, microtiter broth dilution", "type": "cell-based", "conditions": "MHB, 10^5 CFUs/mL, 16–18 h at 37 °C", "procedure": "as §2"}, "S. agalactiae ATCC 13813": {"test_system": "S. agalactiae ATCC 13813", "test": "MIC, microtiter broth dilution", "type": "cell-based", "conditions": "MHB, 10^5 CFUs/mL, 16–18 h at 37 °C", "procedure": "as §2"}, "[10]": {"conditions": "microtiter broth dilution, MHB, 10^5 CFUs/mL, 16–18 h at 37 °C"}, "[11]": {"conditions": "10 mg/kg daily intraperitoneal injection for 6 days, n = 5 per group"}}, "note": "Entries after “also recorded” stand apart in the source; their conditions may differ. Read-outs that look alike come from different tables or passages of the source. Bridge positions count the residues as written; N and C are the ends. Peptide text beside a SMILES is read from it."}
{"smiles": "CC[C@H](C)[C@@H]1NC(=O)[C@H](CO)NC(=O)[C@H](CCCCN)NC(=O)[C@@H]2CSSC[C@@H](C(=O)N[C@@H](Cc3ccc(O)cc3)C(=O)O)NC(=O)[C@H](CCCCN)NC(=O)[C@@H]3CSSC[C@H](NC(=O)[C@H](CCCNC(=N)N)NC(=O)CNC(=O)[C@H](CC(=O)O)NC(=O)[C@H](CC(=O)O)NC(=O)[C@H](CCC(=O)O)NC(=O)[C@H](Cc4ccc(O)cc4)NC(=O)[C@H](Cc4c[nH]c5ccccc45)NC(=O)[C@@H]4CCCN4C(=O)CNC(=O)[C@H](CC(N)=O)NC(=O)[C@@H](NC(=O)CNC(=O)[C@H](Cc4ccccc4)NC(=O)CN)CSSC[C@H](NC(=O)[C@H](Cc4ccc(O)cc4)NC(=O)CNC(=O)CNC(=O)[C@H](CCCCN)NC(=O)[C@H](Cc4ccc(O)cc4)NC(=O)CNC(=O)[C@H](CCCCN)NC1=O)C(=O)N[C@@H](C)C(=O)N[C@@H](CCCCN)C(=O)NCC(=O)NCC(=O)N[C@@H](Cc1ccccc1)C(=O)N[C@@H](C(C)C)C(=O)N3)C(=O)N[C@@H](Cc1c[nH]cn1)C(=O)N[C@@H](CC(N)=O)C(=O)N[C@@H](Cc1c[nH]cn1)C(=O)N2", "note": "[PN7] (H-GFGCNGPWYEDDGRCHNHCKSIKGYKGGYCAKGGFVCKCY-OH; disulfide 4-30, 15-37, 19-39 (inferred); N-terminus and C-terminus assumed)", "values": [{"measurement": "MIC", "setting": "[1]; S. aureus 43300, purified protein induced by shaking flasks", "result": 4, "unit": "µg/mL"}, {"measurement": "MIC", "setting": "[1]; [10]", "result": 8, "unit": "µg/mL"}, {"measurement": "thermal stability (antibacterial activity)", "setting": "[2]; 20–80 °C", "result": "stable"}, {"measurement": "decrease of antibacterial activity", "setting": "[2]; 100 °C", "result": 1, "unit": "fold"}, {"measurement": "histological morphology of mouse organs (H&E)", "setting": "ICR mice; [11]", "result": "showed no difference"}, {"measurement": "murine behavior and body weight", "setting": "ICR mice; [11]", "result": "did not observe a change in murine behavior or the loss of body weight"}, {"measurement": "toxicity to mice, overall", "setting": "ICR mice; intraperitoneal injection for 6 d, observation 1 week", "result": "no toxicity; also recorded: no significant differences compared with the control group"}, {"measurement": "MIC", "setting": "[3]", "result": "over 128 μg/mL"}, {"measurement": "serum stability", "setting": "[4]", "result": "strong resistance to the serum effect; also recorded: stable in serum"}, {"measurement": "MIC", "setting": "S. aureus ATCC 25923; S. aureus 25923, purified protein induced by shaking flasks", "result": 16, "unit": "µg/mL"}, {"measurement": "MIC", "setting": "S. aureus ATCC 25923; [10]", "result": 16, "unit": "µg/mL"}, {"measurement": "MIC", "setting": "S. aureus E48; S. aureus E48, purified protein induced by shaking flasks", "result": 4, "unit": "µg/mL"}, {"measurement": "MIC", "setting": "S. aureus E48; [10]", "result": 1, "unit": "µg/mL"}, {"measurement": "MIC", "setting": "S. aureus CVCC 546; S. aureus 546, purified protein induced by shaking flasks", "result": 4, "unit": "µg/mL"}, {"measurement": "MIC", "setting": "S. aureus CVCC 546; [10]", "result": 1, "unit": "µg/mL"}, {"measurement": "hemolysis", "setting": "mouse erythrocytes", "result": 0.19, "unit": "%"}, {"measurement": "MIC", "setting": "[5]", "result": 16, "unit": "µg/mL"}, {"measurement": "MIC", "setting": "[6]", "result": 1, "unit": "µg/mL"}, {"measurement": "MIC", "setting": "S. pullorum CVCC 1789", "result": ">128", "unit": "µg/mL"}, {"measurement": "MIC", "setting": "S. hyicus 437-2", "result": 8, "unit": "µg/mL"}, {"measurement": "MIC", "setting": "S. agalactiae CAU-FRI-4", "result": 1, "unit": "µg/mL"}, {"measurement": "MIC", "setting": "S. hyicus NCTC 10350", "result": 4, "unit": "µg/mL"}, {"measurement": "MIC", "setting": "[7]", "result": ">128", "unit": "µg/mL"}, {"measurement": "MIC", "setting": "[8]", "result": ">128", "unit": "µg/mL"}, {"measurement": "MIC", "setting": "[9]", "result": ">128", "unit": "µg/mL"}, {"measurement": "MIC", "setting": "S. enteritidis CVCC 3377", "result": ">128", "unit": "µg/mL"}, {"measurement": "MIC", "setting": "S. agalactiae ATCC 13813", "result": 2, "unit": "µg/mL"}]}
